# Assay results from PMC6356585 (Viruses, 2018).
# Where a name gives a salt, the structure may show the parent alone. Read-outs that look alike come from different tables or passages of the source.
# Experiments:
# [1] = test system: ZIKV SPH; experiment: Autophagy compound library screen, ZIKV SPH titer (TCID50) in C6/36 cells; assay type: cell-based, Zika virus; details: for activity at 10 µM: Zika virus, read-out: ZIKV SPH Relative Titer in C6/36 Cells
# [2] = test system: autophagic vesicles in Vero cells; experiment: Autophagy detection (CYTO-ID) in Vero cells; assay type: cell-based; details: 10 µM compound, 24 h, CYTO-ID green MFI vs DMSO control
# [3] = test system: ZIKV IbH; experiment: Autophagy compound screen in Vero cells infected with ZIKV IbH; assay type: cell-based, Zika virus; details: African-lineage ZIKV IbH, 10 µM
# [4] = test system: ZIKV SPH; experiment: Time-of-addition assay in Vero cells; assay type: cell-based, Zika virus; details: Vero, 24 hpi
# [5] = test system: C6/36 cells; assay type: cell-based, Ae. albopictus
# [6] = test system: Vero cells; experiment: Cell viability (CellTiter-Glo) of Vero cells; assay type: cell-based
# [7] = test system: ZIKV SPH; experiment: Autophagy compound library screen, ZIKV SPH titer (TCID50) in Vero cells; assay type: cell-based, Zika virus; details: for activity at 10 µM: Zika virus, Vero, read-out: ZIKV SPH Relative Titer in Vero Cells
# [8] = C6/36, 10 µM compound, MOI 0.1, 96 h, TCID50, ± SEM, three independent trials
# [9] = 10 µM compound, 96 h, CellTiter-Glo, ± SEM, three independent trials
# [10] = 10 µM compound, 40 h, CellTiter-Glo, ± SEM, three independent trials
# [11] = 10 µM compound, MOI 0.1, 40 h, TCID50, ± SEM, three independent trials
# [12] = 10 µM compound, MOI 0.1, 96 h, TCID50, ± SEM, three independent trials
Molecule,"activity at 10 µM [1, 8] [%]","C6/36 Viability [5, 9]","Vero Viability [6, 10]","ZIKV SPH Relative Titer in C6/36 Cells [1, 12]","ZIKV SPH Relative Titer in Vero Cells [7, 11]",Vero Viability ([6]; 10 µM),further results
CCCCc1oc2ccccc2c1C(=O)c1cc(I)c(OCCN(CC)CC)c(I)c1 [Amiodarone HCl],2 ± 0.5,,,,,,Autophagy Activity Factor (AAF) [2]: 60.40; ZIKV IbH titer in Vero cells compared to control [3]: reduced ZIKV IbH titers
Cl.N [Ammonium chloride],,,,,,,"ZIKV replication, time-of-addition ([4]; 30 mM ammonium chloride added later in infection): less inhibitory; ZIKV replication, time-of-addition ([4]; 30 mM ammonium chloride, 2 h prior to infection and at the time of infection): inhibited ZIKV replication"
C[C@H](CCC(=O)O)C[C@H](C)C[C@H](C)C(=O)/C=C(\O)[C@H](C)C[C@H](C)C/C=C/[C@@H](C)[C@@H](O)[C@@H](C)[C@@H](O)C[C@@H]1CC[C@@](C)([C@H]2CC[C@@](C)([C@@H](C)O)O2)O1 [Ionomycin],0,1 ± 0.3% of untreated control,27.7 ± 10.4% of untreated control,,,,"activity at 10 µM [7, 11]: 0%"
"CC(Oc1ccc(O)cc1)(P(=O)(O)O)P(=O)(O)O [L-690,330]",,87 ± 4.6% of untreated control,93.7 ± 3.5% of untreated control,66.8 ± 2.6% of untreated control,40.7 ± 10.6% of untreated control,,
[Cl-].[Li+] [Lithium Chloride],,111 ± 10.7% of untreated control,87.0 ± 1% of untreated control,167.9 ± 68.4% of untreated control,85.4 ± 18.7% of untreated control,,
CN(C)C(=O)C(CCN1CCC(O)(c2ccc(Cl)cc2)CC1)(c1ccccc1)c1ccccc1 [Loperamide HCl],0.1 ± 0.1,12 ± 6.1% of untreated control,66.7 ± 17.4% of untreated control,,,,"activity at 10 µM [7, 11]: 11.7 ± 3.3%"
COC(=O)C1=C(C)NC(C)=C(C(=O)OCCCN2CCC(c3ccccc3)(c3ccccc3)CC2)[C@H]1c1cccc([N+](=O)[O-])c1 [Niguldipine],,,,,,30.0 ± 14.2% of untreated control,"activity at 10 µM ([1]; C6/36, 96 h): 0%; C6/36 Viability ([5]; 10 µM): 5 ± 2.1% of untreated control; activity at 10 µM ([7]; 40 h): 0.2 ± 0.1%"
COC(=O)Nc1nc2ccc(C(=O)c3cccs3)cc2[nH]1 [Nocodazole],182 ± 39.5,,,,,56.0 ± 9.6% of untreated control,"C6/36 Viability ([5]; 10 µM): 58 ± 2.9% of untreated control; activity at 10 µM [7, 11]: 28.4 ± 23.9%"
CNCCCN1c2ccccc2CCc2ccc(Cl)cc21.Cl [Norclomipramine HCl],,19 ± 8.9% of untreated control,48.7 ± 22.9% of untreated control,13.4 ± 8.7% of untreated control,3.9 ± 0.5% of untreated control,,
COc1cccc(-c2cc(=O)c3ccccc3o2)c1N [PD-98059],,93 ± 8.4% of untreated control,90.7 ± 1.3% of untreated control,197.3 ± 40% of untreated control,101.0 ± 23.3% of untreated control,,
O=S(=O)(F)Cc1ccccc1 [PMSF],,81 ± 6.4% of untreated control,98.3 ± 2% of untreated control,258.0 ± 145.2% of untreated control,89.0 ± 7% of untreated control,,
NS(=O)(=O)C#Cc1ccccc1 [Pifithrin-µ],,72 ± 3.2% of untreated control,,75.3 ± 27.5% of untreated control,38.5 ± 12.4% of untreated control,49.0 ± 15% of untreated control,
CO[C@H]1C[C@@H]2CC[C@@H](C)[C@@](O)(O2)C(=O)C(=O)N2CCCC[C@H]2C(=O)O[C@H]([C@H](C)C[C@@H]2CC[C@@H](O)[C@H](OC)C2)CC(=O)[C@H](C)/C=C(\C)[C@@H](O)[C@@H](OC)C(=O)[C@H](C)C[C@H](C)/C=C/C=C/C=C/1C [Rapamycin],75.7 ± 47.7,,,slightly decreased production,increased ZIKV titers,66.0 ± 2.6% of untreated control,"ZIKV SPH Relative Titer in C6/36 Cells ([1]; 10 µM compound, MOI 0.1, 96 h, TCID50, ± SEM, three independent trials, listed as rapamycin): slightly decreased titers; C6/36 Viability ([5]; 10 µM): 59 ± 7.3% of untreated control; Autophagy Activity Factor (AAF) [2]: 7.74"
C=CCNc1ncnc2ccc(Br)cc12 [SMER28],,36 ± 5.3% of untreated control,92.7 ± 3.5% of untreated control,38.7 ± 12.2% of untreated control,65.0 ± 5.6% of untreated control,,
Cc1cccc(Nc2nc(-c3ccncc3)cs2)c1 [STF-62247],,49 ± 9.3% of untreated control,77.3 ± 11.7% of untreated control,169.8 ± 45.9% of untreated control,45.0 ± 21.4% of untreated control,,
CNC(=O)c1cc(Oc2ccc(NC(=O)Nc3ccc(Cl)c(C(F)(F)F)c3)cc2)ccn1 [Sorafenib tosylate],9.4 ± 8.8,23 ± 8.8% of untreated control,58.3 ± 9.9% of untreated control,,,,"activity at 10 µM [7, 11]: 5.8 ± 1.8%"
Cc1ccc(C(=O)Nc2ccc(S(=O)(=O)[O-])c3cc(S(=O)(=O)[O-])cc(S(=O)(=O)[O-])c23)cc1NC(=O)c1cccc(NC(=O)Nc2cccc(C(=O)Nc3cc(C(=O)Nc4ccc(S(=O)(=O)[O-])c5cc(S(=O)(=O)[O-])cc(S(=O)(=O)[O-])c45)ccc3C)c2)c1.[Na+].[Na+].[Na+].[Na+].[Na+].[Na+] [Suramin·6Na],,86 ± 8.4% of untreated control,,86.6 ± 23.2% of untreated control,107.4 ± 44.8% of untreated control,92.0 ± 1.2% of untreated control,
O=C(CC(=O)C(F)(F)F)c1cccs1 [TTFA],,78 ± 19.9% of untreated control,90.0 ± 3.5% of untreated control,72.8 ± 9.6% of untreated control,24.4 ± 7.6% of untreated control,,
OC[C@H]1O[C@H](O[C@H]2O[C@H](CO)[C@@H](O)[C@H](O)[C@H]2O)[C@H](O)[C@@H](O)[C@@H]1O [Trehalose],246 ± 101,,,not able to reduce ZIKV titers,not able to reduce ZIKV titers,97.7 ± 1.5% of untreated control,C6/36 Viability ([5]; 10 µM): 99 ± 2.9% of untreated control
CN1CCN(CCCN2c3ccccc3Sc3ccc(C(F)(F)F)cc32)CC1.Cl.Cl [Trifluoperazine·2HCl],,10 ± 3.8% of untreated control,,0.3 ± 0.3% of untreated control,2.8 ± 0.7% of untreated control,51.0 ± 22.1% of untreated control,
COC[C@H]1OC(=O)c2coc3c2[C@@]1(C)C1=C(C3=O)[C@@H]2CCC(=O)[C@@]2(C)C[C@H]1OC(C)=O [Wortmannin],,,79.0 ± 3.1% of untreated control,,,,"activity at 10 µM ([1]; C6/36, 96 h): 190 ± 57.8%; C6/36 Viability ([5]; 10 µM): 105 ± 5.5% of untreated control; activity at 10 µM ([7]; 40 h): 46.9 ± 9%"
Tunicamycin,,47 ± 7.6% of untreated control,56.3 ± 8.7% of untreated control,1.8 ± 0.8% of untreated control,0.5 ± 0.5% of untreated control,,
